What is called Ki is a dissociation constant, usually derived from enzyme kinetics or from competition with a known ligand.

The target of one assay is T1, Alpha-1A adrenergic receptor (Homo sapiens, UniProt P35348).
T1 sequence (P35348 whole entry): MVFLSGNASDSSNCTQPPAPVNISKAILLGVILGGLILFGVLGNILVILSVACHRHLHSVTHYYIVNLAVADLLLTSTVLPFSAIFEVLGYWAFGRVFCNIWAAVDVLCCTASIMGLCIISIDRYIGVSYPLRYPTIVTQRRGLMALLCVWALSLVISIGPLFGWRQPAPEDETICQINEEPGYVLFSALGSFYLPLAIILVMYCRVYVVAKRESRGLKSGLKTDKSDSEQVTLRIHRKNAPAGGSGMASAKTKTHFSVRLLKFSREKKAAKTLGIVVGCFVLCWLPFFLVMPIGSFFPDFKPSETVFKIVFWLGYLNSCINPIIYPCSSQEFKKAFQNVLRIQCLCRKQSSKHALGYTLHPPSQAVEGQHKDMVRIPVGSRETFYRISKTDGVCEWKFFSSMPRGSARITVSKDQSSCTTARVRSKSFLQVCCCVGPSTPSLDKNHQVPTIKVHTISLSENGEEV
In words: Binding constant measured against Alpha-1A adrenergic receptor in human prostate; +++:highly active. The format is tissue-based, Prostate gland.
Regarding `CC(C)(Cc1c[nH]c2ccc(Cl)cc12)NCCOc1ccccc1OCC1CC1`, the affinity corresponds to a Ki of 0.6 nM.

The molecule `CC(C)Oc1ccccc1N1CCN(CCCNC(=O)CN2CCCCC2=O)CC1` [RWJ-69736] registered a Ki of 0.65 nM.

The molecule `COc1cccc(OC)c1OCCNC[C@@H]1Oc2ccccc2O[C@H]1c1ccc(C)cc1` displayed an inhibition constant (Ki) of 0.35 nM.

In the case of `COc1cccc(OC)c1OCCNC[C@H]1CSc2ccccc2O1`, the inhibitory constant (Ki) turned out to be 0.2 nM.

`COCC1=C(C(=O)OC)[C@H](c2ccc(F)c(F)c2)N(C(=O)NCCCN2CCC(c3ccccn3)CC2)C(=O)N1` returned an inhibition constant Ki of 0.36 nM.

Consider `C[C@H](Cc1cc2c(c(C(N)=O)c1)N(CCCO)CC2)NCCOc1ccccc1OCC(F)(F)F` [SILODOSIN], for which affinity was put at a Ki of 0.036 nM.

A further assay has as its target T1, Alpha-1A adrenergic receptor. Description: Binding constant measured against Alpha-1A adrenergic receptor in human prostate; +:inactive. The format is tissue-based, Prostate gland.
For the molecule `COc1cc2c3c(c1OC)-c1cc4c(cc1C[C@@H]3N(C)CC2)OCO4`, the affinity corresponds to a Ki of 430 nM.

`N=C(CC(O)COc1ccccc1-c1ccccc1)N1CCCCC1` (stereo not given) yielded a Ki of 2500 nM.

In turn, `CCS(=O)(=O)Nc1cccc(C(=C2CCCCC2)c2c[nH]cn2)c1` gave a Ki of 490 nM.

Consider `C[C@H](CN1CCN(c2cc(F)c(F)cc2F)CC1)N1C(=O)CC2(CCCC2)CC1=O`, for which the affinity corresponds to a Ki of 290 nM.

The next assay has the same target. In words: Binding constant measured against Alpha-1A adrenergic receptor in human prostate; ++:moderately active. The format is tissue-based, Prostate gland.
Molecule `N=C(Nc1ccccc1)N1CCN(/C=C2/N=C(c3cccc4ccccc34)OC2=O)CC1` displayed an inhibition constant (Ki) of 41 nM.

Consider `COc1ccc(Cl)cc1N1CCN(CCCNc2nccc(C(N)=O)n2)CC1`, for which the inhibition constant (Ki) stood at 2 nM.

For `COc1ccccc1N1CCN(CCN2C(=O)c3ccccc3C(C)(C)C2=O)CC1`, the affinity, expressed as Ki, was 1 nM.

On to `C[C@@]1(O)C(=O)N(CCCN2CCN(c3ccc(F)cc3OCC(F)(F)F)CC2)C(=O)N[C@@H]1O`, for which the inhibitory constant (Ki) is 5 nM.

`CC(C)Oc1ccccc1N1CCN(CCNC(=O)CN2CCCCCC2=O)CC1` [RWJ-68157] displayed an inhibitory constant (Ki) of 22 nM.

Turning to `CCOC(=O)C1CCC(=O)N1CC(=O)CCN1CCN(c2ccccc2OC(C)C)CC1` (stereo not given), the Ki was found to be 59 nM.

`COc1cccc(OC)c1OCCNCC1Oc2ccccc2OC1c1ccc(C)cc1` (stereo not given): the Ki came to 4.1 nM.

For the molecule `O=C(CCCN1CCC2(CC1)C(=O)NCN2c1ccccc1)c1ccc(F)cc1` [SPIPERONE], affinity was put at a Ki of 7.9 nM.

Turning to `COc1ccccc1N1CCN(CC(O)COc2cccc3ccccc23)CC1` (stereo not given) [NAFTOPIDIL], the affinity, expressed as Ki, was 3.7 nM.

Take `CC(C)Oc1ccccc1N1CCN(CCNC(=O)CN2CCCCC2=O)CC1` [RWJ-38063]: the affinity, expressed as Ki, was 9.3 nM.

(Values after ChEMBL document CHEMBL1144284, “Pharmacophore identification of alpha(1A)-adrenoceptor antagonists” (Bioorg Med Chem Lett, 2005).)
